Results as given in paper PMC3568510 (Biochemistry, 2013).

Biological target: CC3396
Format: biochemical, Caulobacter vibrioides (Caulobacter crescentus)

| SMILES | Ki [nM] |
| --- | --- |
| Nc1nc2c(ncn2[C@@H]2O[C@@H]3CO[P@@](O)(=S)O[C@H]4[C@@H](O)[C@H](n5cnc6c(=O)[nH]c(N)nc65)O[C@@H]4CO[P@](O)(=S)O[C@H]3[C@H]2O)c(=O)[nH]1 [c-(RPSP)-di-Gps] | ~820 |
| Nc1nc2c(ncn2[C@@H]2O[C@@H]3CO[P@@](O)(=S)O[C@H]4[C@@H](O)[C@H](n5cnc6c(=O)[nH]c(N)nc65)O[C@@H]4CO[P@@](O)(=S)O[C@H]3[C@H]2O)c(=O)[nH]1 [c-(RPRP)-di-Gps] | ~480 |
